Active and inactive are the calls of the source. The calls are words filed in the database; no cut-off is given here.
What was measured:
Rhesus monkey [1] = assay: Narcotic antagonist activity in morphine-dependent monkey; type: functional, organism-based; settings: Macaca mulatta
Mus musculus = assay: Analgesic activity in sc dosed white mouse by hot plate method; type: functional
Rhesus monkey [2] = assay: Precipitation of abstinence syndrome of long duration in morphine-dependent monkey assessed as hyperexcitability; type: ADME, organism-based, Macaca mulatta; settings: in vivo
Rhesus monkey [3] = assay: Precipitation of abstinence syndrome of long duration in morphine-dependent monkey assessed as irritability; type: ADME, organism-based, Macaca mulatta; settings: in vivo
Rhesus monkey [4] = assay: Precipitation of abstinence syndrome of long duration in morphine-dependent monkey assessed as movement within cage; type: ADME, organism-based, Macaca mulatta; settings: in vivo
Rhesus monkey [5] = assay: Precipitation of abstinence syndrome of long duration in morphine-dependent monkey assessed as abdominal cramps; type: ADME, organism-based, Macaca mulatta, Abdomen; settings: in vivo

SMILES	Activity (Rhesus monkey [1])	ED50 (Mus musculus) [mg/kg]	Activity (Rhesus monkey [2])	Activity (Rhesus monkey [3])	Activity (Rhesus monkey [4])	Activity (Rhesus monkey [5])
CN1CC[C@@H]2CC1Cc1ccc(O)cc12	Active	–	–	–	–	–
C[C@@H]1C2Cc3ccc(O)cc3[C@@H]1CCN2C	Active	1.1	Non-toxic	Toxic	Non-toxic	Toxic
C[C@H]1C2Cc3ccc(O)cc3[C@@H]1CCN2C	–	4.3	Non-toxic	Toxic	Non-toxic	Toxic
CN1CC[C@]23c4c5ccc(O)c4O[C@H]2[C@@H](O)C=C[C@H]3[C@H]1C5 [MORPHINE]	–	1.2	–	–	–	–
CCOC(=O)C1(c2ccccc2)CCN(C)CC1 [MEPERIDINE]	–	4.5	–	–	–	–

— ChEMBL document CHEMBL3272348, “Synthesis and pharmacology of 2,9alpha-dimethyl-2'-hydroxy-6,7-benzomorphan” (J Med Chem, 1976)
